# Patent US20240299486A1, “ADDRESSING INJECTION SITE REACTIONS ASSOCIATED WITH THE ADMINISTRATION OF ELAMIPRETIDE” (STEALTH BIOTHERAPEUTICS INC., priority 2022, published 2024)
# Tests used:
# [1] = test system: healthy subjects; experiment: Phase 1 crossover study: clinically assessed injection site reactions
# Description: (§1) • This Phase 1, open-label, 6-arm crossover study included 10 healthy subjects ≥18 and ≤65 years of age. • All subjects received 60 mg of SQ elamipretide to alternating quadrants of the abdomen on each of 6 occasions (FIG. 3), with or without the interventions listed in Table 2. • For each treatment arm, ISR clinical and self-assessments were performed pre-elamipretide administration and at 0.5, 1, 2, 4, 6, 12, 24, and 48 hours after each elamipretide dose. • Blood samples for plasma concentrations of elamipretide and its metabolites were also collected pre-dose and at 0.25, 0.5, 1, 2, 4, and 6 hours post-elamipretide dose. • Primary endpoints consisted of comparisons of the grading from the clinical assessments and the self-assessments of each ISR parameter following administration of elamipretide with each separate intervention versus that of elamipretide alone. • Secondary endpoints consisted of comparison of various pharmacokinetic (PK) parameters and adverse events following administration of elamipretide with each separate intervention versus that of elamipretide alone.
# (§2) After the screening period (up to 28 days) in this phase 1, open-label, 4-week, 6-part, crossover study, all eligible subjects received 60 mg (0.75 mL) of SC elamipretide to alternating quadrants of the abdomen on each of 6 occasions, with or without potential ISR interventions. The first treatment arm (Arm 1) commenced on Day 1 with administration of elamipretide only, followed by the remaining treatment arms (Arms 2-6) with the following potential mitigations: mometasone furoate, 0.1% ointment, applied once under a hydrocolloid occlusive dressing (DuoDERM Extra Thin) 7 days prior to elamipretide administration (Arm 2); ice application at the elamipretide injection site 5 minutes pre- and post-drug administration (Arm 3); tacrolimus 0.1% ointment applied 15 minutes pre-drug dosing (Arm 4); doxepin 5% cream applied 15 minutes pre-elamipretide administration (Arm 5); and diphenhydramine 50 mg orally taken 2 hours prior to administration (Arm 6). For each treatment arm, blood samples for plasma concentrations of elamipretide and its metabolites were collected pre-dose and at 0.25, 0.5, 1, 2, 4, and 6 hours post-elamipretide dose. Vital signs were recorded pre-dose and at 0.5 and 6 hours post-elamipretide administration. ISR clinical and self-assessments were performed pre-elamipretide administration and at 0.5, 1, 2, 4, 6, 12, 24, and 48 hours after each elamipretide dose. Injection sites were photographed at 0.5, 1, 2, 4, and 12 hours post-elamipretide dose.
# (§3) The primary endpoints of this study were comprised of the following efficacy measures: clinical assessments and subject self-assessments. Specifically, the primary endpoints consisted of comparisons of the grading of each ISR parameter following administration of elamipretide with each separate intervention versus the grading of each ISR parameter following administration of elamipretide alone. For clinical assessments, the clinical staff used a standard procedure adapted from the Division of Aids Table for Grading the Severity of Adult and Pediatric Adverse Events to score pain, erythema, induration, and pruritus using a 4-point scale based on severity (0=None, 1=Mild, 2=Moderate, 3=Severe, 4=Potentially Life Threatening). The self-assessments were based on a questionnaire to determine how bothered the patient was following each injection of elamipretide and included the following parameters: pain, burning sensation, cold sensation, itching, redness, swelling, and bruising.
# (§4) All statistical analyses were performed using SAS GRID Linux/SAS Studio (Version 9.4, or higher). PK parameters for elamipretide and its metabolites, M1 and M2, were summarized using descriptive statistics.
# [2] = test system: healthy subjects; experiment: Phase 1 crossover study: self-assessed injection site reactions; assay type: in vivo, human; conditions: 60 mg SQ elamipretide with or without the intervention, across all timepoints, all participants, n = 80
# Description: as §1, §2, §3, §4
# [3] = Phase 1 crossover study: pharmacokinetics of elamipretide and metabolites M1, M2; conditions: human, in vivo, 60 mg
# Description: as §1
# After the screening period (up to 28 days) in this phase 1, open-label, 4-week, 6-part, crossover study, all eligible subjects received 60 mg (0.75 mL) of SC elamipretide to alternating quadrants of the abdomen on each of 6 occasions, with or without potential ISR interventions. […]
# [4] = test system: subjects
# [5] = test system: control (non-MRGPRX2 expressing) Chem-1 cells; conditions: parent Chem-1 cells, Fluo-4
# Description: MRGPRX2 expressing and control (non-MRGPRX2 expressing) Chem-1 cells lines were obtained from Discovery Services, EuroFins. Cells were cultured in Dulbecco's Modified Eagle Medium (DMEM) high glucose medium (4.5 g/L) with 10% fetal bovine serum (FBS), non-essential amino acids, and N-2-hydroxyethylpiperazine-N′-2-ethanesulfonic acid (HEPES) buffer (pH 7.0-7.6). Geneticin (G418) was used for selection of MRGPRX2-expressing Chem-1 cells. Cells were maintained at 37° C. at 5% CO2. Cells were seeded to a glass bottom 96-well plates at a density of 50,000 per well (Cellvis). Cells were loaded with Fluo-4 AM for 30 minutes at 37° C. at a concentration of 2.5 μM. Cells were washed once with Dulbecco's phosphate buffered saline (DPBS). Cells were rested at room temperature for 30 minutes before use and washed with DPBS. Cells were resuspended in 50 μl phosphate buffered saline (PBS) with calcium and magnesium. […] Plates were read immediately with a Biotek plate reader. Readings were taken every 6 seconds for 2 minutes.
# [6] = test system: rats; conditions: subcutaneous administration, long term toxicology studies
# [7] = test system: non-human primates; conditions: long term toxicology studies
# [8] = 60 mg SQ elamipretide with or without the intervention, across all timepoints, all participants, n = 80
# [9] = SQ elamipretide, multiple-dose trials >8 days, n = 376
compound,measurement,setting,value
"Cc1cc(O)cc(C)c1C[C@H](NC(=O)[C@H](N)CCCNC(=N)N)C(=O)N[C@@H](CCCCN)C(=O)N[C@@H](Cc1ccccc1)C(N)=O (stereo in doubt) [Elamipretide, H-D-Arg-2′,6′Dmt-Lys-Phe-NH2]","Clinically assessed Erythema or redness, (%) of Reported Reactions",[1]; [8],(26.3) %
same,"Clinically assessed Erythema or redness, Number of Reported Reactions",[1]; [8],21
same,"Clinically assessed Induration or swelling, (%) of Reported Reactions",[1]; [8],(20.0) %
same,"Clinically assessed Induration or swelling, Number of Reported Reactions",[1]; [8],16
same,"Clinically assessed Pain or tenderness, (%) of Reported Reactions",[1]; [8],(11.3) %
same,"Clinically assessed Pain or tenderness, Number of Reported Reactions",[1]; [8],9
same,"Clinically assessed Pruritis, (%) of Reported Reactions",[1]; [8],(17.5) %
same,"Clinically assessed Pruritis, Number of Reported Reactions",[1]; [8],14
same,time post-dose after which bruising appeared to form,"[1]; injection site photographs, in those affected",> 12 h
same,time post-dose at which ISRs captured on the photographs were resolving,"[1]; injection site photographs, with the exception of bruising",4 h
same,"Self-assessed Bruising, (%) of Reported Reactions",[2],(6.3) %
same,"Self-assessed Bruising, Number of Reported Reactions",[2],5
same,"Self-assessed Burning sensation, (%) of Reported Reactions",[2],(16.3) %
same,"Self-assessed Burning sensation, Number of Reported Reactions",[2],13
same,"Self-assessed Cold Sensation, Number of Reported Reactions",[2],0.0
same,"Self-assessed Itching, (%) of Reported Reactions",[2],(20.0) %
same,"Self-assessed Itching, Number of Reported Reactions",[2],16
same,"Self-assessed Pain, (%) of Reported Reactions",[2],(13.8) %
same,"Self-assessed Pain, Number of Reported Reactions",[2],11
same,"Self-assessed Redness, (%) of Reported Reactions",[2],(30.0) %
same,"Self-assessed Redness, Number of Reported Reactions",[2],24
same,"Self-assessed Swelling, (%) of Reported Reactions",[2],(22.5) %
same,"Self-assessed Swelling, Number of Reported Reactions",[2],18
same,Tmax,[3],30 min
same,"Injection site bruising, (%) of Subjects",[4]; [9],(12.0) %
same,"Injection site bruising, Number of Subjects",[4]; [9],45
same,"Injection site erythema, (%) of Subjects",[4]; [9],(47.3) %
same,"Injection site erythema, Number of Subjects",[4]; [9],178
same,"Injection site haemorrhage, (%) of Subjects",[4]; [9],(5.9) %
same,"Injection site haemorrhage, Number of Subjects",[4]; [9],22
same,"Injection site induration, (%) of Subjects",[4]; [9],(19.4) %
same,"Injection site induration, Number of Subjects",[4]; [9],73
same,"Injection site mass, (%) of Subjects",[4]; [9],(5.6) %
same,"Injection site mass, Number of Subjects",[4]; [9],21
same,"Injection site pain, (%) of Subjects",[4]; [9],(22.3) %
same,"Injection site pain, Number of Subjects",[4]; [9],84
same,"Injection site pruritus, (%) of Subjects",[4]; [9],(44.7) %
same,"Injection site pruritus, Number of Subjects",[4]; [9],168
same,"Injection site swelling, (%) of Subjects",[4]; [9],(13.8) %
same,"Injection site swelling, Number of Subjects",[4]; [9],52
same,"Injection site urticaria, (%) of Subjects",[4]; [9],(12.5) %
same,"Injection site urticaria, Number of Subjects",[4]; [9],47
same,"injection site reactions (ISRs) reported, % of subjects",[4]; subjects receiving SQ elamipretide through clinical trials,84.4%
same,effect on cells lacking the MRGPRX2 receptor (calcium mobilization),[5],no effect
same,injection site reactions,[6],some being severe at the higher dose levels
same,injection site reactions,[7],generally not severe
